Assay [1] concerns the target T1, purified Saccharomyces EF2 (Saccharomyces cerevisiae, UniProt P32324).
T1 construct: The ribosomes and EF2 are both prepared by published methods; endogenous in cells; host or cells: Saccharomyces cerevisiae; EF2 purified by the method of Skogerson, Methods in Enzymology LX
Kind of assay: Binding assay with purified components, Saccharomyces EF2. Particulars: for binding of labelled compound (in words): yeast EF2. How it is done:
(§1) This assay involves the same procedure as disclosed above substituting 0.4 A260 units salt-washed S. cerevisiae ribosomes and 1 pmol purified EF2 for the 10 μg S30 in the above assay. The ribosomes and EF2 are both prepared by published methods (L. Skogerson, Methods in Enzymology, Vol LX,p676-685).
(§2) As with the S30 binding assay, this assay may be used to either identify the component binding drug, or to examine competition by unknown agents.

Assay [2] deals with T2, Saccharomyces cerevisiae EF2 in crude S30 extracts (Saccharomyces cerevisiae, UniProt P32324).
T2 construct: A Saccharomyces cerevisiae strain containing wild-type EF2 is inoculated into medium; endogenous in cells; host or cells: Saccharomyces cerevisiae strain with wild-type EF2, S30 extract
Kind of assay: Competitive binding assay, Saccharomyces S30 extract. To be noted: for displacement of ^3H-Compound I binding (in words): unlabelled competitor. On the procedure:
(§3) A competitive assay can be performed involving the displacement of a radiolabeled compound with specificity for pathogen EF2 such as ^3H-Compound I binding to Saccharomyces cerevisiae EF2 in crude S30 extracts. As proof of the specificity of inhibitor found with the S30 binding assay, binding competition can also be performed with purified EF2 in the presence of washed ribosomes
In a microfuge tube 100 μl assay mixture contains: 10 μg yeast S-30, 25 μM GTP-γ-s (0.5 μl of 5 mM stock), dilutions of agent to be examined for ability to compete for binding and Buffer B to bring volume to 98 μl. Vortex and incubate at room temperature 5 min. Add 2 μl ^3H-Compound I (1:20 dilution in water). Vortex and incubate for 20-30 min.
To a Sephadex G-75 column was pre-soaked in Buffer A (20 gm/400 ml) several hours. Mini columns were packed with G-75 precisely to the mark line (˜1.6 ml ) and allowed to settle by washing with 2 ml Buffer A.
The 100μl incubated mixtures are loaded onto G-75 columns (no collection) As soon as the sample has entered the gel bed (approximately 20 sec), 0.7 ml Buffer A is added and eluate is collected in mini vials 3 ml Scintiverse is added and vials counted.
Saccharomyces S30 extract: A Saccharomyces cerevisiae strain containing wild-type EF2 is inoculated into medium containing in g/l: 10 g Bacto Yeast Extract, 20 g Bacto Peptone, 20 g dextrose and 60 mg adenine and incubated with shaking at 30° C. until mid to late logarithmic phase (A600˜2). The cells are harvested and washed twice with water. Pellets may be stored at −70° C. indefinitely prior to disruption. For breakage, cells are resuspended in 2 vol of buffer containing 50 mM Tris-Cl pH 7.4, 10% (wt/vol) glycerol, 2 mM MgCl2, 2 mM dithiothreitol, 1 mM phenylmethylsulfonyl fluoride and broken by prolonged agitation with acid-washed 0.5 mm glass beads. The supernatant is centrifuged at […] for 15 min to sediment cell debris.

The target in another assay is T3, rat EF2 (Rattus norvegicus, UniProt P05197).
T3 construct: from tissue; host or cells: rat liver
Kind of assay: Binding assay with purified components, rat EF2. To be noted: yeast EF2 replaced by rat (liver) EF2. On the procedure:
as §1, §2

The next assay concerns wheat germ S30 extracts. Kind of assay: Binding assay with wheat germ S30 extracts.
Description: as §3
(§4) The binding is displaceable by unlabelled L-793,422, sordarin and analogs. No binding is seen with mammalian cell or wheat germ S30 extracts.

Assay [3] relates to mammalian cell S30 extracts. Kind of assay: Binding assay with mammalian cell S30 extracts.
Description: as §3, §4

Another assay has as its system wheat germ EF2. Kind of assay: Binding assay with purified components, wheat germ EF2. Particulars: yeast EF2 replaced by wheat germ EF2. How it is done:
as §1, §2

Assay [4] relates to S. cerevisiae sordarin sensitive strain (sS1). Kind of assay: Growth inhibition assay I, sordarin sensitive strain. It counts as cell-based. To be noted: Saccharomyces cerevisiae; 0.5 μg applied; agar plate, 30° C., 16-24 hours; read-out: clear zone of inhibition. An excerpt:
(§5) An assay has been developed to identify antifungal compounds with sordarin like activities using S. cerevisiae as as a surrogate organism. It consists of a two plate differential zone assay using sordarin sensitive (sS1) and resistant strains (sR1) that contain an erg6 deletion, which increases membrane permeability and facilitates the uptake of various substances. In this screen, active compounds show a clear zone on the sensitive strain plate and no zone for the resistant strain plate.
(§6) Approximately 1×10^6 cells per ml are added to growth medium containing 2% agar. Medium and cells are mixed, poured into plates, and allowed to solidify. Test compounds or fermentation extracts are applied with the intent of identifying samples which inhibit the growth of these yeast. The cultures are incubated at 30° C. for 16-24 hours. A similar assay can also be run in a high-throughput microtiter format by inoculating cells into liquid growth medium containing test compounds or fermentation extracts. Active compounds can be identified by assaying for growth inhibition, which can be determined by measuring the optical density of the individual cultures.

Assay [5] deals with S. cerevisiae sordarin resistant strain (sR1). Kind of assay: Growth inhibition assay I, sordarin resistant strain. To be noted: 0.5 μg applied; agar plate, 30° C., 16-24 hours. It is filed as cell-based, Saccharomyces cerevisiae.
Description: as §5, §6

T1 sequence (P32324 whole entry): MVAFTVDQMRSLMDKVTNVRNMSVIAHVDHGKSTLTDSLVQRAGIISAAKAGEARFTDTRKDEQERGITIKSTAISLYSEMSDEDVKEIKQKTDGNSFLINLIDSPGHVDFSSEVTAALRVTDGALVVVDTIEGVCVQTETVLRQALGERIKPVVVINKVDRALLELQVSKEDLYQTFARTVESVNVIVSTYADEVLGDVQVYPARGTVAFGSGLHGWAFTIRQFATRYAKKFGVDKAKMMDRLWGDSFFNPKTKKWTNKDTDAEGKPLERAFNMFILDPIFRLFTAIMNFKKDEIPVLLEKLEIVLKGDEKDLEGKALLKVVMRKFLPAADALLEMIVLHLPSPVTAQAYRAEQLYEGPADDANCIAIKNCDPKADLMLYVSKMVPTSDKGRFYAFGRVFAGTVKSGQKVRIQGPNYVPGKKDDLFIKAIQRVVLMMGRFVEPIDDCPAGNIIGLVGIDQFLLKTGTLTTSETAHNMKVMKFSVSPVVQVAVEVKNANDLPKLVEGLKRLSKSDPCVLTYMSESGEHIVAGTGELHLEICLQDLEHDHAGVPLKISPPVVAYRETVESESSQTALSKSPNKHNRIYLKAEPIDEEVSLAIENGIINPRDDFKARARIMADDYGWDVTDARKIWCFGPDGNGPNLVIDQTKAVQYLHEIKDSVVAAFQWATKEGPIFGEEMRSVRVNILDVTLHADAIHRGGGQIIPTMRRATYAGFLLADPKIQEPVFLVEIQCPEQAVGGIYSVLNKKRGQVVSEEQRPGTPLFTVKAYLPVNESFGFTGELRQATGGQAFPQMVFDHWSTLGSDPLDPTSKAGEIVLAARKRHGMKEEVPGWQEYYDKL
T2 sequence (P32324 whole entry): as above

Take `CC(C)COCC12CC3C(C)CCC3[C@@]3(C=O)C[C@@H]1C=C(C(C)C)[C@@]23C(=O)O` (stereo partly drawn) [^3H-Compound I]: the “amount of labelled compound bound” value is given as “approximately 0.6 pmol” in assay [1] (0.65 pmol purified Saccharomyces EF2 plus 4 pmol purified Saccharomyces ribosomes) and “approximately 0.5 pmol” in assay [2] (10 μg S30 extract from wild-type Saccharomyces). Moreover, the “binding of labelled compound (in words)” value is given as “no effect on binding” in assay [1] (yeast ribosomes replaced by rat (liver) ribosomes, listed as 3H-L793,422); “does not reduce binding” in assay [1] (yeast ribosomes replaced by rat (liver) ribosomes, listed as labelled compound); “no effect on binding” in assay [1] (yeast ribosomes replaced by wheat germ ribosomes, listed as 3H-L793,422); “does not reduce binding” in assay [1] (yeast ribosomes replaced by wheat germ ribosomes, listed as labelled compound); “Specific binding” in assay [2] (Saccharomyces S30 extracts); “abolishes binding” on rat EF2 (listed as 3H-L793,422). Moreover, the “binding of labelled compound (in words)” value on rat EF2 (listed as labelled compound) was “abolishes binding to background levels”; with wheat germ S30 extracts it was “No binding”; in assay [3], “No binding”; with wheat germ EF2 (listed as 3H-L793,422), “abolishes binding”; with wheat germ EF2 (listed as labelled compound), “abolishes binding to background levels”.

For `CO[C@H]1[C@@H](O)[C@H](O)[C@H](OC[C@@]23C[C@@H]4[C@H](C)CC[C@H]4[C@@]4(C=O)CC2C=C(C(C)C)[C@@]34C(=O)O)O[C@@H]1C` [sordarin, reference compound], the half-maximal inhibitory concentration (IC50) in assay [2] (10 μg S30 extract from wild-type Saccharomyces, read-out: IC50 for displacement of ^3H-Compound I binding (converted)) is 6.09 nM. Further, the “displacement of ^3H-Compound I binding (in words)” value in assay [2] (Saccharomyces S30 extracts) is “displaceable”. The zone of inhibition at 0.5 µg/disc in assay [4] was 20 mm. Further, in assay [5], the “zone of inhibition (in words)” value is on record as “no zone”.

As to `CC(C)COCC12CC3C(C)CCC3[C@@]3(C=O)C[C@@H]1C=C(C(C)C)[C@@]23C(=O)O` (stereo partly drawn) [Compound I], in assay [2] (Saccharomyces S30 extracts), the “displacement of ^3H-Compound I binding (in words)” value was “displaceable”.

What is called IC50 is the concentration at which inhibition is half-maximal. One may read the zone of inhibition as the size of the clear area around the sample on an inoculated plate.
